Assays:
Coccidioides immitis = conditions: expected efficacy against Coccidioides immitis
Aspergillus fumigatus = assay: Expected efficacy of antifungal agents; conditions: expected efficacy against Aspergillus fumigatus
Blastomyces dermatitidis = assay: Expected efficacy of antifungal agents; conditions: expected efficacy against Blastomyces dermatitidis
Aspergillus terreus = assay: Expected efficacy of antifungal agents; conditions: expected efficacy against Aspergillus terreus
Candida species = assay: Expected efficacy of antifungal agents; conditions: expected efficacy against Candida species
Histoplasma capsulatum = conditions: expected efficacy against Histoplasma capsulatum
Aspergillus niger = assay: Expected efficacy of antifungal agents; conditions: expected efficacy against Aspergillus niger
[1] = test system: Paracoccidioides brasiliensis; assay: Expected efficacy of antifungal agents; conditions: expected efficacy against Paracoccidioides brasiliensis
Aspergillus flavus = assay: Expected efficacy of antifungal agents; conditions: expected efficacy against Aspergillus flavus
Leishmania infantum = assay: Expected efficacy of antifungal agents; conditions: expected efficacy against Leishmania infantum
Cryptococcus neoformans = assay: Expected efficacy of antifungal agents; conditions: expected efficacy against Cryptococcus neoformans
Leishmania donovani = assay: Expected efficacy of antifungal agents; conditions: expected efficacy against Leishmania donovani
Legionella pneumophila = conditions: expected efficacy against Legionella pneumophila; Gram: neg
Corynebacterium jeikeium = assay: Expected efficacy of antibiotic agents; conditions: expected efficacy against Corynebacterium jeikeium; Gram: pos
Vibrio cholerae = assay: Expected efficacy of antibiotic agents; conditions: expected efficacy against Vibrio cholerae; Gram: neg
Chlamydia pneumoniae = assay: Expected efficacy of antibiotic agents; conditions: expected efficacy against Chlamydia pneumoniae; Gram: n/a
[2] = test system: Methicillin resistant staph aureus (MRSA); assay: Expected efficacy of antibiotic agents; conditions: expected efficacy against Methicillin resistant staph aureus (MRSA); Gram: pos
Proteus mirabilis = assay: Expected efficacy of antibiotic agents; conditions: expected efficacy against Proteus mirabilis; Gram: neg
Bacteroides fragilis = assay: Expected efficacy of antibiotic agents; conditions: expected efficacy against Bacteroides fragilis; Gram: anaer
Pseudomonas aeruginosa = assay: Expected efficacy of antibiotic agents; conditions: expected efficacy against Pseudomonas aeruginosa; Gram: neg
[3] = test system: Acinetobacter calcoaceticus; assay: Expected efficacy of antibiotic agents; conditions: expected efficacy against Acinetobacter calcoaceticus; Gram: neg
Yersinia pestis = conditions: expected efficacy against Yersinia pestis; Gram: neg
Klebsiella oxytoca = assay: Expected efficacy of antibiotic agents; conditions: expected efficacy against Klebsiella oxytoca; Gram: neg
Acinetobacter baumannii = assay: Expected efficacy of antibiotic agents; conditions: expected efficacy against Acinetobacter baumannii; Gram: neg
Shigella dysenteriae = assay: Expected efficacy of antibiotic agents; conditions: expected efficacy against Shigella dysenteriae; Gram: neg
Citrobacter freundii = assay: Expected efficacy of antibiotic agents; conditions: expected efficacy against Citrobacter freundii; Gram: neg
Escherichia coli = assay: Expected efficacy of antibiotic agents; conditions: expected efficacy against Escherichia coli; Gram: neg
Haemophilus influenzae = assay: Expected efficacy of antibiotic agents; conditions: expected efficacy against Haemophilus influenzae; Gram: neg
Streptococcus pneumoniae = assay: Expected efficacy of antibiotic agents; conditions: expected efficacy against Streptococcus pneumoniae; Gram: pos
[4] = test system: Klebsiella (Calymmatobacterium); assay: Expected efficacy of antibiotic agents; conditions: expected efficacy against Klebsiella (Calymmatobacterium); Gram: neg
Campylobacter jejuni = assay: Expected efficacy of antibiotic agents; conditions: expected efficacy against Campylobacter jejuni; Gram: neg
Chlamydia psittaci = conditions: expected efficacy against Chlamydia psittaci; Gram: n/a
Streptococcus pyogenes = assay: Expected efficacy of antibiotic agents; conditions: expected efficacy against Streptococcus pyogenes; Gram: pos
Enterococcus faecalis = assay: Expected efficacy of antibiotic agents; conditions: expected efficacy against Enterococcus faecalis; Gram: pos
Neisseria meningitidis = assay: Expected efficacy of antibiotic agents; conditions: expected efficacy against Neisseria meningitidis; Gram: neg
Enterococcus faecium = assay: Expected efficacy of antibiotic agents; conditions: expected efficacy against Enterococcus faecium; Gram: pos
Bordetella pertussis = assay: Expected efficacy of antibiotic agents; conditions: expected efficacy against Bordetella pertussis; Gram: neg
Shigella flexneri = assay: Expected efficacy of antibiotic agents; conditions: expected efficacy against Shigella flexneri; Gram: neg
[5] = test system: Staphylococcus epidermidis; assay: Expected efficacy of antibiotic agents; conditions: expected efficacy against Staphylococcus epidermidis; Gram: pos
[6] = test system: Viridans group streptococci; assay: Expected efficacy of antibiotic agents; conditions: expected efficacy against Viridans group streptococci; Gram: pos
Shigella boydii = assay: Expected efficacy of antibiotic agents; conditions: expected efficacy against Shigella boydii; Gram: neg
Chlamydia trachomatis = assay: Expected efficacy of antibiotic agents; conditions: expected efficacy against Chlamydia trachomatis; Gram: n/a
Peptostreptococcus = assay: Expected efficacy of antibiotic agents; conditions: expected efficacy against Peptostreptococcus; Gram: pos
Serratia marcescens = assay: Expected efficacy of antibiotic agents; conditions: expected efficacy against Serratia marcescens; Gram: neg
Moraxella catarrhalis = assay: Expected efficacy of antibiotic agents; conditions: expected efficacy against Moraxella catarrhalis; Gram: neg
Pseudomonas fluorescens = assay: Expected efficacy of antibiotic agents; conditions: expected efficacy against Pseudomonas fluorescens; Gram: neg
Klebsiella pneumoniae = assay: Expected efficacy of antibiotic agents; conditions: expected efficacy against Klebsiella pneumoniae; Gram: neg
Shigella sonnei = assay: Expected efficacy of antibiotic agents; conditions: expected efficacy against Shigella sonnei; Gram: neg
Streptococcus agalactiae = assay: Expected efficacy of antibiotic agents; conditions: expected efficacy against Streptococcus agalactiae; Gram: pos
Proteus vulgaris = assay: Expected efficacy of antibiotic agents; conditions: expected efficacy against Proteus vulgaris; Gram: neg
Citrobacter diversus = assay: Expected efficacy of antibiotic agents; conditions: expected efficacy against Citrobacter diversus; Gram: neg
Mycoplasma pneumoniae = assay: Expected efficacy of antibiotic agents; conditions: expected efficacy against Mycoplasma pneumoniae; Gram: n/a
Enterobacter sakazakii = assay: Expected efficacy of antibiotic agents; conditions: expected efficacy against Enterobacter sakazakii; Gram: neg
Enterobacter aerogenes = assay: Expected efficacy of antibiotic agents; conditions: expected efficacy against Enterobacter aerogenes; Gram: neg
Neisseria gonorrhoeae = assay: Expected efficacy of antibiotic agents; conditions: expected efficacy against Neisseria gonorrhoeae; Gram: neg
Clostridium perfringens = conditions: expected efficacy against Clostridium perfringens; Gram: anaer
[7] = test system: Staphylococcus aureus (MSSA); assay: Expected efficacy of antibiotic agents; conditions: expected efficacy against Staphylococcus aureus (MSSA); Gram: pos
Haemophilus ducreyi = assay: Expected efficacy of antibiotic agents; conditions: expected efficacy against Haemophilus ducreyi; Gram: neg
[8] = test system: Corynebacterium urealyticum; assay: Expected efficacy of antibiotic agents; conditions: expected efficacy against Corynebacterium urealyticum; Gram: pos
Clostridium difficile = assay: Expected efficacy of antibiotic agents; conditions: expected efficacy against Clostridium difficile; Gram: anaer
Enterobacter cloacae = assay: Expected efficacy of antibiotic agents; conditions: expected efficacy against Enterobacter cloacae; Gram: neg
Acinetobacter lwoffii = assay: Expected efficacy of antibiotic agents; conditions: expected efficacy against Acinetobacter lwoffii; Gram: neg
Scedosporium apiospermum = assay: Expected efficacy of antifungal agents; conditions: expected efficacy against Scedosporium apiospermum
Fusarium species = assay: Expected efficacy of antifungal agents; conditions: expected efficacy against Fusarium species
Brucella species = conditions: expected efficacy against Brucella species; Gram: neg
Providencia rettgeri = assay: Expected efficacy of antibiotic agents; conditions: expected efficacy against Providencia rettgeri; Gram: neg
[9] = test system: Haemophilus parainfluenzae; assay: Expected efficacy of antibiotic agents; conditions: expected efficacy against Haemophilus parainfluenzae; Gram: neg
Diphtheroids = assay: Expected efficacy of antibiotic agents; conditions: expected efficacy against Diphtheroids; Gram: pos
Providencia stuartii = assay: Expected efficacy of antibiotic agents; conditions: expected efficacy against Providencia stuartii; Gram: neg

Q: How did the Efficacy (Coccidioides immitis) turn out when `C[C@@H]1[C@H](O)[C@@H](C)/C=C/C=C/C=C/C=C/C=C/C=C/C=C/[C@H](O[C@@H]2O[C@H](C)[C@@H](O)[C@H](N)[C@@H]2O)C[C@@H]2O[C@](O)(C[C@@H](O)C[C@@H](O)[C@H](O)CC[C@@H](O)C[C@@H](O)CC(=O)O[C@H]1C)C[C@H](O)[C@H]2C(=O)O` [Amphotericin] was run?
A: yes

Q: And the Efficacy (Aspergillus fumigatus)?
A: yes

Q: And the Efficacy (Blastomyces dermatitidis)?
A: yes

Q: And the Efficacy (Aspergillus terreus)?
A: yes

Q: And the Efficacy (Candida species)?
A: yes

Q: And the Efficacy (Histoplasma capsulatum)?
A: yes

Q: And the Efficacy (Aspergillus niger)?
A: yes

Q: And the Efficacy [1]?
A: yes

Q: And the Efficacy (Aspergillus flavus)?
A: yes

Q: What about the Efficacy (Leishmania infantum) of the same molecule?
A: yes

Q: What about the Efficacy (Cryptococcus neoformans) of the same molecule?
A: yes

Q: And the Efficacy (Leishmania donovani)?
A: yes

Q: What does the source list for `OC(Cn1cncn1)(Cn1cncn1)c1ccc(F)cc1F` [Fluconazole]?
A: Efficacy (Coccidioides immitis): yes; Efficacy (Aspergillus fumigatus): yes; Efficacy (Blastomyces dermatitidis): yes; Efficacy (Candida species): yes; Efficacy (Histoplasma capsulatum): yes; Efficacy (Aspergillus flavus): yes; Efficacy (Cryptococcus neoformans): yes

Q: `NC[C@H]1O[C@H](O[C@H]2[C@H](O)[C@@H](O[C@H]3O[C@H](CO)[C@@H](O)[C@H](N)[C@H]3O)[C@H](N)C[C@@H]2N)[C@H](N)C[C@@H]1O` [Tobramycin] was tested. Which Efficacy (Legionella pneumophila) did it give?
A: no

Q: And the Efficacy (Corynebacterium jeikeium)?
A: no

Q: And the Efficacy (Vibrio cholerae)?
A: no

Q: What about the Efficacy (Chlamydia pneumoniae) of the same molecule?
A: no

Q: And the Efficacy [2]?
A: no

Q: And the Efficacy (Proteus mirabilis)?
A: yes

Q: What about the Efficacy (Bacteroides fragilis) of the same molecule?
A: no

Q: What about the Efficacy (Pseudomonas aeruginosa) of the same molecule?
A: yes

Q: What about the Efficacy [3] of the same molecule?
A: no

Q: What about the Efficacy (Yersinia pestis) of the same molecule?
A: yes

Q: And the Efficacy (Klebsiella oxytoca)?
A: yes

Q: What about the Efficacy (Acinetobacter baumannii) of the same molecule?
A: no

Q: What about the Efficacy (Shigella dysenteriae) of the same molecule?
A: yes

Q: What about the Efficacy (Citrobacter freundii) of the same molecule?
A: yes

Q: What about the Efficacy (Escherichia coli) of the same molecule?
A: yes

Q: And the Efficacy (Haemophilus influenzae)?
A: yes

Q: What about the Efficacy (Streptococcus pneumoniae) of the same molecule?
A: no

Q: And the Efficacy [4]?
A: yes

Q: And the Efficacy (Campylobacter jejuni)?
A: yes

Q: What about the Efficacy (Chlamydia psittaci) of the same molecule?
A: no

Q: And the Efficacy (Streptococcus pyogenes)?
A: no

Q: What about the Efficacy (Enterococcus faecalis) of the same molecule?
A: no

Q: What about the Efficacy (Neisseria meningitidis) of the same molecule?
A: no

Q: What about the Efficacy (Enterococcus faecium) of the same molecule?
A: no

Q: And the Efficacy (Bordetella pertussis)?
A: no

Q: What about the Efficacy (Shigella flexneri) of the same molecule?
A: yes

Q: What about the Efficacy [5] of the same molecule?
A: no

Q: And the Efficacy [6]?
A: no

Q: And the Efficacy (Shigella boydii)?
A: yes

Q: What about the Efficacy (Chlamydia trachomatis) of the same molecule?
A: no

Q: And the Efficacy (Peptostreptococcus)?
A: no

Q: And the Efficacy (Serratia marcescens)?
A: yes

Q: What about the Efficacy (Moraxella catarrhalis) of the same molecule?
A: yes

Q: What about the Efficacy (Pseudomonas fluorescens) of the same molecule?
A: yes

Q: What about the Efficacy (Klebsiella pneumoniae) of the same molecule?
A: yes

Q: And the Efficacy (Shigella sonnei)?
A: yes

Q: And the Efficacy (Streptococcus agalactiae)?
A: no

Q: And the Efficacy (Proteus vulgaris)?
A: yes

Q: And the Efficacy (Citrobacter diversus)?
A: yes

Q: And the Efficacy (Mycoplasma pneumoniae)?
A: no

Q: What about the Efficacy (Enterobacter sakazakii) of the same molecule?
A: yes

Q: And the Efficacy (Enterobacter aerogenes)?
A: yes

Q: And the Efficacy (Neisseria gonorrhoeae)?
A: no

Q: What about the Efficacy (Clostridium perfringens) of the same molecule?
A: no

Q: What about the Efficacy [7] of the same molecule?
A: no

Q: And the Efficacy (Haemophilus ducreyi)?
A: yes

Q: What about the Efficacy [8] of the same molecule?
A: no

Q: What about the Efficacy (Clostridium difficile) of the same molecule?
A: no

Q: And the Efficacy (Enterobacter cloacae)?
A: yes

Q: And the Efficacy (Acinetobacter lwoffii)?
A: no

Q: How did the Efficacy (Scedosporium apiospermum) turn out when `C[C@@H](c1ncncc1F)[C@](O)(Cn1cncn1)c1ccc(F)cc1F` [Voriconazole] was run?
A: yes

Q: What about the Efficacy (Aspergillus fumigatus) of the same molecule?
A: yes

Q: What about the Efficacy (Aspergillus terreus) of the same molecule?
A: yes

Q: And the Efficacy (Candida species)?
A: yes

Q: What about the Efficacy (Fusarium species) of the same molecule?
A: yes

Q: What about the Efficacy (Aspergillus niger) of the same molecule?
A: yes

Q: And the Efficacy (Aspergillus flavus)?
A: yes

Q: For Colistimethate, which Efficacy (Legionella pneumophila) is on record?
A: no

Q: What about the Efficacy (Corynebacterium jeikeium) of the same molecule?
A: no

Q: What about the Efficacy (Vibrio cholerae) of the same molecule?
A: no

Q: And the Efficacy (Chlamydia pneumoniae)?
A: no

Q: What about the Efficacy [2] of the same molecule?
A: no

Q: What about the Efficacy (Brucella species) of the same molecule?
A: no

Q: What about the Efficacy (Proteus mirabilis) of the same molecule?
A: no

Q: What about the Efficacy (Bacteroides fragilis) of the same molecule?
A: no

Q: What about the Efficacy (Pseudomonas aeruginosa) of the same molecule?
A: yes

Q: And the Efficacy (Klebsiella oxytoca)?
A: yes

Q: And the Efficacy (Providencia rettgeri)?
A: no

Q: What about the Efficacy (Escherichia coli) of the same molecule?
A: yes

Q: And the Efficacy (Streptococcus pneumoniae)?
A: no

Q: What about the Efficacy [4] of the same molecule?
A: yes

Q: What about the Efficacy (Chlamydia psittaci) of the same molecule?
A: no

Q: What about the Efficacy (Streptococcus pyogenes) of the same molecule?
A: no

Q: And the Efficacy (Enterococcus faecalis)?
A: no

Q: What about the Efficacy [9] of the same molecule?
A: no

Q: What about the Efficacy (Neisseria meningitidis) of the same molecule?
A: no

Q: What about the Efficacy (Enterococcus faecium) of the same molecule?
A: no

Q: What about the Efficacy (Bordetella pertussis) of the same molecule?
A: no

Q: What about the Efficacy [5] of the same molecule?
A: no

Q: And the Efficacy [6]?
A: no

Q: What about the Efficacy (Chlamydia trachomatis) of the same molecule?
A: no

Q: And the Efficacy (Peptostreptococcus)?
A: no

Q: And the Efficacy (Serratia marcescens)?
A: no

Q: What about the Efficacy (Moraxella catarrhalis) of the same molecule?
A: no

Q: And the Efficacy (Pseudomonas fluorescens)?
A: yes

Q: And the Efficacy (Klebsiella pneumoniae)?
A: yes

Q: And the Efficacy (Streptococcus agalactiae)?
A: no

Q: What about the Efficacy (Proteus vulgaris) of the same molecule?
A: no

Q: And the Efficacy (Diphtheroids)?
A: no

Q: And the Efficacy (Providencia stuartii)?
A: no

Q: What about the Efficacy (Mycoplasma pneumoniae) of the same molecule?
A: no

Q: And the Efficacy (Enterobacter sakazakii)?
A: yes

Q: And the Efficacy (Enterobacter aerogenes)?
A: yes

Q: What about the Efficacy (Neisseria gonorrhoeae) of the same molecule?
A: no

Q: What about the Efficacy [7] of the same molecule?
A: no

Q: What about the Efficacy [8] of the same molecule?
A: no

Q: And the Efficacy (Clostridium difficile)?
A: no

Q: What about the Efficacy (Enterobacter cloacae) of the same molecule?
A: yes

Reference: patent US20220265694A1, “COMPOSITIONS AND METHODS FOR TREATING AN INFECTION” (CMPD LICENSING, LLC, priority 2016, published 2022)
